Experimental data as given in the supplement of paper PMC11208160.

Test: recombinant barcode read abundance after kanamycin selection (control-corrected) (log10(CPM+1)); higher = more efficient recombination; sequences stand for … in AGTGCAGAGAAAATCGGCCAGTTTTCTCTGCCTGCAGTCCGCATGCCGT…ATTTATGCAGCGGACTGCCTTTCTCCCAAAGTGATAAACCGGACAGTATCATGGACCGGTTTTCCCGGTAATCCGTATTTGCAAGGTTGGTTTCACT; site = the 11-nt target
Procedure, shortened: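 Pooled oligos, each joining a target to an IS621 bridge RNA target-binding loop, were cloned and co-electroporated with a donor plasmid into E. coli. Selective plates carried chloramphenicol/ampicillin/kanamycin and 0.1 mM IPTG, while chloramphenicol/ampicillin LB agar served as control, with two replicates of each. Recombination efficiency rests on averaged, control-corrected counts per million of barcodes at recombinant junctions, shown as log10(CPM+1).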

Sequence | recombinant barcode read abundance (log10)
GCGGGACCATGGGTTCTAACCTGTTGCCTTG [GCGGGACCTAG_LTGcore_CA_RTGcore_CA] (site GCGGGACCTAG) (LTG core: CA, RTG core: CA) | 0.182
GCGGGACCCTGGGTTCTAACCTGTTGCCTAG [GCGGGACCTAG_LTGcore_CC_RTGcore_CT] (site GCGGGACCTAG) (LTG core: CC, RTG core: CT) | 1.21
GCGGGACCGTGGGTTCTAACCTGTTGCCTAG [GCGGGACCTAG_LTGcore_CG_RTGcore_CT] (site GCGGGACCTAG) (LTG core: CG, RTG core: CT) | 0.76
GCGGGACCTTGGGTTCTAACCTGTTGCCTGC [GCGGGACCTAG_LTGcore_CT_RTGcore_GC] (site GCGGGACCTAG) (LTG core: CT, RTG core: GC) | 1.08
GCGGGACCTTGGGTTCTAACCTGTTGCCTTA [GCGGGACCTAG_LTGcore_CT_RTGcore_TA] (site GCGGGACCTAG) (LTG core: CT, RTG core: TA) | 1.18
GCGGGACCTTGGGTTCTAACCTGTTGCCTTC [GCGGGACCTAG_LTGcore_CT_RTGcore_GA] (site GCGGGACCTAG) (LTG core: CT, RTG core: GA) | 1.19
GCGGGACGTTGGGTTCTAACCTGTTGCCTAC [GCGGGACCTAG_LTGcore_GT_RTGcore_GT] (site GCGGGACCTAG) (LTG core: GT, RTG core: GT) | 0.163
GCGGGACTTTGGGTTCTAACCTGTTGCCTAG [GCGGGACCTAG_LTGcore_TT_RTGcore_CT] (site GCGGGACCTAG) (LTG core: TT, RTG core: CT) | 0.13
GGACACCATTGGGTTCTAACCTGTTGCCTAG [GGACACCCTAG_LTGcore_AT_RTGcore_CT] (site GGACACCCTAG) (LTG core: AT, RTG core: CT) | 0.15
GGACACCATTGGGTTCTAACCTGTTGCCTAT [GGACACCCTAG_LTGcore_AT_RTGcore_AT] (site GGACACCCTAG) (LTG core: AT, RTG core: AT) | 0.145
GGACACCCTTGGGTTCTAACCTGTTGCCTAA [GGACACCCTAG_LTGcore_CT_RTGcore_TT] (site GGACACCCTAG) (LTG core: CT, RTG core: TT) | 1.19
GGACACCCTTGGGTTCTAACCTGTTGCCTCC [GGACACCCTAG_LTGcore_CT_RTGcore_GG] (site GGACACCCTAG) (LTG core: CT, RTG core: GG) | 0.904
GGACACCCTTGGGTTCTAACCTGTTGCCTCT [GGACACCCTAG_LTGcore_CT_RTGcore_AG] (site GGACACCCTAG) (LTG core: CT, RTG core: AG) | 0.545
GGACACCCTTGGGTTCTAACCTGTTGCCTGG [GGACACCCTAG_LTGcore_CT_RTGcore_CC] (site GGACACCCTAG) (LTG core: CT, RTG core: CC) | 0.503
GGACACCCTTGGGTTCTAACCTGTTGCCTTA [GGACACCCTAG_LTGcore_CT_RTGcore_TA] (site GGACACCCTAG) (LTG core: CT, RTG core: TA) | 1.36
GGACACCCTTGGGTTCTAACCTGTTGCCTTT [GGACACCCTAG_LTGcore_CT_RTGcore_AA] (site GGACACCCTAG) (LTG core: CT, RTG core: AA) | 1.04
GGACACCGCTGGGTTCTAACCTGTTGCCTGC [GGACACCCTAG_LTGcore_GC_RTGcore_GC] (site GGACACCCTAG) (LTG core: GC, RTG core: GC) | 0.0534
GGACACCGGTGGGTTCTAACCTGTTGCCTCC [GGACACCCTAG_LTGcore_GG_RTGcore_GG] (site GGACACCCTAG) (LTG core: GG, RTG core: GG) | 0.0801
GGACACCGTTGGGTTCTAACCTGTTGCCTAC [GGACACCCTAG_LTGcore_GT_RTGcore_GT] (site GGACACCCTAG) (LTG core: GT, RTG core: GT) | 0.944
GGACACCTATGGGTTCTAACCTGTTGCCTAG [GGACACCCTAG_LTGcore_TA_RTGcore_CT] (site GGACACCCTAG) (LTG core: TA, RTG core: CT) | 0.094
GGACACCTATGGGTTCTAACCTGTTGCCTTA [GGACACCCTAG_LTGcore_TA_RTGcore_TA] (site GGACACCCTAG) (LTG core: TA, RTG core: TA) | 0
GGCTCCCAATGGGTTCTAACCTGTTGCGGTT [GGCTCCCCTCC_LTGcore_AA_RTGcore_AA] (site GGCTCCCCTCC) (LTG core: AA, RTG core: AA) | 0.102
GGCTCCCCATGGGTTCTAACCTGTTGCGGAG [GGCTCCCCTCC_LTGcore_CA_RTGcore_CT] (site GGCTCCCCTCC) (LTG core: CA, RTG core: CT) | 0.0917

Sequence | recombinant barcode read abundance (log10)
GGCTCCCCTTGGGTTCTAACCTGTTGCGGAT [GGCTCCCCTCC_LTGcore_CT_RTGcore_AT] (site GGCTCCCCTCC) (LTG core: CT, RTG core: AT) | 0.0958
GGCTCCCCTTGGGTTCTAACCTGTTGCGGCC [GGCTCCCCTCC_LTGcore_CT_RTGcore_GG] (site GGCTCCCCTCC) (LTG core: CT, RTG core: GG) | 0.131
GGCTCCCCTTGGGTTCTAACCTGTTGCGGTA [GGCTCCCCTCC_LTGcore_CT_RTGcore_TA] (site GGCTCCCCTCC) (LTG core: CT, RTG core: TA) | 0.101
GGCTCCCCTTGGGTTCTAACCTGTTGCGGTC [GGCTCCCCTCC_LTGcore_CT_RTGcore_GA] (site GGCTCCCCTCC) (LTG core: CT, RTG core: GA) | 0.0253
GGCTCCCCTTGGGTTCTAACCTGTTGCGGTG [GGCTCCCCTCC_LTGcore_CT_RTGcore_CA] (site GGCTCCCCTCC) (LTG core: CT, RTG core: CA) | 0.251
GGCTCCCGGTGGGTTCTAACCTGTTGCGGCC [GGCTCCCCTCC_LTGcore_GG_RTGcore_GG] (site GGCTCCCCTCC) (LTG core: GG, RTG core: GG) | 0.203
GGCTCCCGTTGGGTTCTAACCTGTTGCGGAC [GGCTCCCCTCC_LTGcore_GT_RTGcore_GT] (site GGCTCCCCTCC) (LTG core: GT, RTG core: GT) | 0.259
GGCTCCCTTTGGGTTCTAACCTGTTGCGGAA [GGCTCCCCTCC_LTGcore_TT_RTGcore_TT] (site GGCTCCCCTCC) (LTG core: TT, RTG core: TT) | 0.0992
GGCTCCCTTTGGGTTCTAACCTGTTGCGGAG [GGCTCCCCTCC_LTGcore_TT_RTGcore_CT] (site GGCTCCCCTCC) (LTG core: TT, RTG core: CT) | 0.0927
GGGAGCCAATGGGTTCTAACCTGTTGCTGAG [GGGAGCCCTCA_LTGcore_AA_RTGcore_CT] (site GGGAGCCCTCA) (LTG core: AA, RTG core: CT) | 0.235
GGGAGCCATTGGGTTCTAACCTGTTGCTGAT [GGGAGCCCTCA_LTGcore_AT_RTGcore_AT] (site GGGAGCCCTCA) (LTG core: AT, RTG core: AT) | 0.574
GGGAGCCCTTGGGTTCTAACCTGTTGCTGCA [GGGAGCCCTCA_LTGcore_CT_RTGcore_TG] (site GGGAGCCCTCA) (LTG core: CT, RTG core: TG) | 0.122
GGGAGCCCTTGGGTTCTAACCTGTTGCTGCG [GGGAGCCCTCA_LTGcore_CT_RTGcore_CG] (site GGGAGCCCTCA) (LTG core: CT, RTG core: CG) | 0.147
GGGAGCCCTTGGGTTCTAACCTGTTGCTGTG [GGGAGCCCTCA_LTGcore_CT_RTGcore_CA] (site GGGAGCCCTCA) (LTG core: CT, RTG core: CA) | 0.589
GGGAGCCTTTGGGTTCTAACCTGTTGCTGAG [GGGAGCCCTCA_LTGcore_TT_RTGcore_CT] (site GGGAGCCCTCA) (LTG core: TT, RTG core: CT) | 0.364
GGGCGGAAATGGGTTCTAACCTGTTGCGGAG [GGGCGGACTCC_LTGcore_AA_RTGcore_CT] (site GGGCGGACTCC) (LTG core: AA, RTG core: CT) | 0.131
GGGCGGACATGGGTTCTAACCTGTTGCGGAG [GGGCGGACTCC_LTGcore_CA_RTGcore_CT] (site GGGCGGACTCC) (LTG core: CA, RTG core: CT) | 2.27
GGGCGGACGTGGGTTCTAACCTGTTGCGGAG [GGGCGGACTCC_LTGcore_CG_RTGcore_CT] (site GGGCGGACTCC) (LTG core: CG, RTG core: CT) | 1.66
GGGCGGACTTGGGTTCTAACCTGTTGCGGGC [GGGCGGACTCC_LTGcore_CT_RTGcore_GC] (site GGGCGGACTCC) (LTG core: CT, RTG core: GC) | 0.131
GGGCGGACTTGGGTTCTAACCTGTTGCGGGT [GGGCGGACTCC_LTGcore_CT_RTGcore_AC] (site GGGCGGACTCC) (LTG core: CT, RTG core: AC) | 0.273
GGGCGGAGTTGGGTTCTAACCTGTTGCGGAG [GGGCGGACTCC_LTGcore_GT_RTGcore_CT] (site GGGCGGACTCC) (LTG core: GT, RTG core: CT) | 0.389
GGGCGGATCTGGGTTCTAACCTGTTGCGGGA [GGGCGGACTCC_LTGcore_TC_RTGcore_TC] (site GGGCGGACTCC) (LTG core: TC, RTG core: TC) | 0.265
